Measurements taken from paper PMC5386545, “Madecassic acid, the contributor to the anti-colitis effect of madecassoside, enhances the shift of Th17 toward Treg cells via the PPARγ/AMPK/ACC1 pathway” (Cell Death & Disease, 2017).

Columns and labels:
[1] = biological target: T1, PPARγ (Homo sapiens, UniProt P37231); assay: LanthaScreen TR-FRET competitive binding assay
T1 construct: gene PPARG; GST-fused human PPARγ-LBD
T1 sequence (P37231 231-505 limits assumed): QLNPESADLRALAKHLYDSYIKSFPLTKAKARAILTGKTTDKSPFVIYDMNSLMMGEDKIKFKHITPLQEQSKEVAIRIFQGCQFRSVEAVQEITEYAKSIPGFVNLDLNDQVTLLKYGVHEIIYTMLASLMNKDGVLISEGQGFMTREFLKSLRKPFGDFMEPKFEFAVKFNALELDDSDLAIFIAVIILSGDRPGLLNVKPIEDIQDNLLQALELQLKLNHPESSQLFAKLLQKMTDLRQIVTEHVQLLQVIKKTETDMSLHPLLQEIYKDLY

[2] = biological target: T1, PPARγ; assay: LanthaScreen TR-FRET competitive binding assay (reference agonist; value not given)

Row | Structure (SMILES) | Ki [1] | LanthaScreen TR-FRET competitive binding assay (reference agonist); no value prin [2]
1 | C[C@H]1[C@H](C)CC[C@]2(C(=O)O)CC[C@]3(C)C(=CC[C@@H]4[C@@]5(C)C[C@@H](O)[C@H](O)[C@@](C)(CO)[C@@H]5[C@H](O)C[C@]43C)[C@H]12 [madecassic acid] | 1.61 µM | –
2 | CN(CCOc1ccc(CC2SC(=O)NC2=O)cc1)c1ccccn1 (centres unmarked) [rosiglitazone] | – | Madecassic acid or rosiglitazone was cultured with GST-fused human PPARγ-LBD, terbium-labeled anti-GST antibody and a fluorescently labeled PPAR ligand
